Source: US20060148858A1, “1, 2-Azole derivatives with hypoglycemic and hypolipidemic activity” (priority 2002, published 2006)

Experiments:
[1] = biological target: T1, PPARγ-RXRα heterodimer (Homo sapiens, UniProt P37231); test: PPARγ-RXRα heterodimer ligand activity, luciferase reporter in PPARγ:RXRα:4ERPP/CHO-K1 cells (Test Example 3); format: cell-based; settings: 18-48 hours, concentration for 50% of the maximum fold induction
T1 construct: expressed in transfected cells; host or cells: CHO-K1
T1 sequence (P37231 1-477 isoform P37231-2): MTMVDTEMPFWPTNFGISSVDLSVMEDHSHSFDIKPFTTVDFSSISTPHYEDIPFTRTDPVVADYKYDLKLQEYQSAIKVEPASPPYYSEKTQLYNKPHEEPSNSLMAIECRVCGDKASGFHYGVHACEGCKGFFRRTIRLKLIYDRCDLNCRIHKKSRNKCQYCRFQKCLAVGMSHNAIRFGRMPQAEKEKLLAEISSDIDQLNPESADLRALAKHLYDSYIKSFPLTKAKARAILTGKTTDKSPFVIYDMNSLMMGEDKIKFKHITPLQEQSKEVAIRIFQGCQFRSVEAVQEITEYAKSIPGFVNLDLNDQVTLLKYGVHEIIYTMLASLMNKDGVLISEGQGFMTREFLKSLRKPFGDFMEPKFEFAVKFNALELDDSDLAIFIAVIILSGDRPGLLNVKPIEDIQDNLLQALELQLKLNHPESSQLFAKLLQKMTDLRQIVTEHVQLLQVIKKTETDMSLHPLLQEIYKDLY
T1 sequence (P19793 1-462 partner): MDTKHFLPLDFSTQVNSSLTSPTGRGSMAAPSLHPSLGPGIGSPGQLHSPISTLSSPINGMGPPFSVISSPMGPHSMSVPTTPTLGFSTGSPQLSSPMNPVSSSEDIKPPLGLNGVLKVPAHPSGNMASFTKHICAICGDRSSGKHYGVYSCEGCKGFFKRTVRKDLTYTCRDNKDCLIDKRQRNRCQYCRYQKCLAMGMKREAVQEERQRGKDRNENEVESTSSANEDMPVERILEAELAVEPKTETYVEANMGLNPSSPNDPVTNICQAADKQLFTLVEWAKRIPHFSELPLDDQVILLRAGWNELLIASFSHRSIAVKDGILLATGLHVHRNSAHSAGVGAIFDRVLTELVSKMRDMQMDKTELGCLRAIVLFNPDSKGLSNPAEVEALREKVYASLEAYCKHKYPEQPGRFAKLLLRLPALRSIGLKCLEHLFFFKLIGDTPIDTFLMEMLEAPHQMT
Procedure, shortened: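 Stable CHO-K1 line co-expressing hPPARγ/RXR with 4ERPP-TK luciferase reporter, 2×10^4 cells per well, treated 18-48 h at 37° C. in HAM F12 with 0.1% fatty acid-free BSA. Luciferase fold induction versus untreated taken as 1; EC50 is concentration giving 50% of maximal fold induction.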

SMILES | EC50 [1] [µM] | melting point [°C]
CCC(CC)c1nn(-c2ccc(C(F)(F)F)nn2)cc1CCCOc1c(C)cccc1CC(=O)O [Example 340, [2-(3-{3-(1-ethylpropyl)-1-[6-(trifluoromethyl)pyridazin-3-yl]-1H-pyrazol-4-yl}propoxy)-3-methylphenyl]acetic acid] | 0.022 | 76 to 77
CCC(CC)c1nn(-c2ccc(Br)cn2)cc1CCCOc1c(CC(=O)O)cccc1OC [Example 351, (2-{3-[1-(5-bromo-2-pyridinyl)-3-(1-ethylpropyl)-1H-pyrazol-4-yl]propoxy}-3-methoxyphenyl)acetic acid] | 0.02 | 94 to 95
Cc1cccc(CC(=O)O)c1OCCCc1cn(-c2ccc(C(F)(F)F)nn2)nc1C(C)(C)C [Example 367, [2-(3-{3-tert-butyl-1-[6-(trifluoromethyl)pyridazin-3-yl]-1H-pyrazol-4-yl}propoxy)-3-methylphenyl]acetic acid] | 0.041 | 96 to 97
